Laboratory results as given in PubChem BioAssay (NCI).
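Values below derive from 48-hour exposures of cells grown in 96-well plates, with endpoints linearly interpolated between the two concentrations bracketing the appropriate inhibition level. GI50: concentration for 50% inhibition of growth. TGI is the concentration that stops growth completely.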

How the values were obtained:
Test in all cases: inhibition of tumour cell growth, NCI panel, 48 h
K-562 leukemia = tested on: K-562 leukemia
OVCAR-3 ovarian = tested on: OVCAR-3 ovarian
786-0 renal = tested on: 786-0 renal
OVCAR-8 ovarian = tested on: OVCAR-8 ovarian
NCI-H23 lung = tested on: NCI-H23 lung
HT29 colon = tested on: HT29 colon
SN12C renal = tested on: SN12C renal
NCI/ADR-RES ovarian = tested on: NCI/ADR-RES ovarian
PC-3 prostate = tested on: PC-3 prostate
HOP-62 NSCLC = tested on: HOP-62 NSCLC
SF-539 CNS = tested on: SF-539 CNS
BT-549 breast = tested on: BT-549 breast
ACHN renal = tested on: ACHN renal
NCI-H226 lung = tested on: NCI-H226 lung
SF-268 CNS = tested on: SF-268 CNS
SNB-75 CNS = tested on: SNB-75 CNS
HCC-2998 colon = tested on: HCC-2998 colon
NCI-H460 lung = tested on: NCI-H460 lung
MDA-MB-231 breast = tested on: MDA-MB-231 breast
HOP-92 NSCLC = tested on: HOP-92 NSCLC
MDA-MB-468 breast = tested on: MDA-MB-468 breast
MCF7 breast = tested on: MCF7 breast
MOLT-4 leukemia = tested on: MOLT-4 leukemia
MALME-3M melanoma = tested on: MALME-3M melanoma
A498 renal = tested on: A498 renal
UO-31 renal = tested on: UO-31 renal
SNB-19 CNS = tested on: SNB-19 CNS
LOX IMVI melanoma = tested on: LOX IMVI melanoma
DU-145 prostate = tested on: DU-145 prostate
A549 NSCLC = tested on: A549 NSCLC
U251 CNS = tested on: U251 CNS
SF-295 CNS = tested on: SF-295 CNS
SW-620 colon = tested on: SW-620 colon
COLO 205 colon = tested on: COLO 205 colon
HCT-15 colon = tested on: HCT-15 colon
RXF 393 renal = tested on: RXF 393 renal
CCRF-CEM leukemia = tested on: CCRF-CEM leukemia
OVCAR-4 ovarian = tested on: OVCAR-4 ovarian
RPMI-8226 leukemia = tested on: RPMI-8226 leukemia
HCT-116 colon = tested on: HCT-116 colon
IGROV1 ovarian = tested on: IGROV1 ovarian
SK-MEL-28 melanoma = tested on: SK-MEL-28 melanoma
SK-MEL-5 melanoma = tested on: SK-MEL-5 melanoma
SR leukemia = tested on: SR leukemia
SK-OV-3 ovarian = tested on: SK-OV-3 ovarian
HS 578T breast = tested on: HS 578T breast
MDA-MB-435 = tested on: MDA-MB-435
NCI-H522 lung = tested on: NCI-H522 lung
EKVX NSCLC = tested on: EKVX NSCLC
TK-10 renal = tested on: TK-10 renal
UACC-257 melanoma = tested on: UACC-257 melanoma
HL-60(TB) leukemia = tested on: HL-60(TB) leukemia
UACC-62 melanoma = tested on: UACC-62 melanoma
T-47D breast = tested on: T-47D breast
M14 melanoma = tested on: M14 melanoma
KM12 colon = tested on: KM12 colon
CAKI-1 renal = tested on: CAKI-1 renal
SK-MEL-2 melanoma = tested on: SK-MEL-2 melanoma
OVCAR-5 ovarian = tested on: OVCAR-5 ovarian

Work on `Fc1cccc(CNc2nc(SCCN3CCOCC3)nc3c2cnn3CC(Cl)c2ccc(Br)cc2)c1` (stereo not drawn) yielded a GI50 (K-562 leukemia) of 2690 nM, a TGI (K-562 leukemia) greater than 100 µM and a GI50 (OVCAR-3 ovarian) of 53.1 µM. For the same molecule, the TGI (OVCAR-3 ovarian) was greater than 100 µM, the GI50 (786-0 renal) was 5.7 µM and the TGI (786-0 renal) was greater than 100 µM. It also gave a GI50 (OVCAR-8 ovarian) of 10.7 µM, a TGI (OVCAR-8 ovarian) greater than 100 µM and a GI50 (NCI-H23 lung) of 17 µM. For the same molecule, the TGI (NCI-H23 lung) was greater than 100 µM, the GI50 (HT29 colon) was 1860 nM and the TGI (HT29 colon) was 3.82 µM. The GI50 (SN12C renal) was 12 µM, the TGI (SN12C renal) was greater than 100 µM and the GI50 (NCI/ADR-RES ovarian) was 4.52 µM. The TGI (NCI/ADR-RES ovarian) was greater than 100 µM, the GI50 (PC-3 prostate) was 6.58 µM and the TGI (PC-3 prostate) was greater than 100 µM. It also gave a GI50 (HOP-62 NSCLC) of 25.8 µM, a TGI (HOP-62 NSCLC) greater than 100 µM and a GI50 (SF-539 CNS) of 4.58 µM. For the same molecule, the TGI (SF-539 CNS) was greater than 100 µM, the GI50 (BT-549 breast) was 21.2 µM and the TGI (BT-549 breast) was 57.4 µM. It also gave a GI50 (ACHN renal) of 5.83 µM, a TGI (ACHN renal) greater than 100 µM and a GI50 (NCI-H226 lung) of 13.2 µM. The TGI (NCI-H226 lung) was 98.4 µM, the GI50 (SF-268 CNS) was 10 µM and the TGI (SF-268 CNS) was greater than 100 µM. The GI50 (SNB-75 CNS) was 6.5 µM, the TGI (SNB-75 CNS) was greater than 100 µM and the GI50 (HCC-2998 colon) was 3.46 µM. The TGI (HCC-2998 colon) was greater than 100 µM, the GI50 (NCI-H460 lung) was 5.04 µM and the TGI (NCI-H460 lung) was greater than 100 µM. The GI50 (MDA-MB-231 breast) was 4.25 µM, the TGI (MDA-MB-231 breast) was 52.6 µM and the GI50 (HOP-92 NSCLC) was 13.4 µM. For the same molecule, the TGI (HOP-92 NSCLC) was greater than 100 µM, the GI50 (MDA-MB-468 breast) was 2620 nM and the TGI (MDA-MB-468 breast) was 8.48 µM. It also gave a GI50 (MCF7 breast) of 4.61 µM, a TGI (MCF7 breast) greater than 100 µM and a GI50 (MOLT-4 leukemia) of 2580 nM. It also gave a TGI (MOLT-4 leukemia) of 15.7 µM, a GI50 (MALME-3M melanoma) of 3.02 µM and a TGI (MALME-3M melanoma) of 24.9 µM. For the same molecule, the GI50 (A498 renal) was 30.4 µM, the TGI (A498 renal) was greater than 100 µM and the GI50 (UO-31 renal) was 5.11 µM. For the same molecule, the TGI (UO-31 renal) was greater than 100 µM, the GI50 (SNB-19 CNS) was 16.2 µM and the TGI (SNB-19 CNS) was greater than 100 µM. For the same molecule, the GI50 (LOX IMVI melanoma) was 2900 nM, the TGI (LOX IMVI melanoma) was 11.6 µM and the GI50 (DU-145 prostate) was 39 µM. The TGI (DU-145 prostate) was greater than 100 µM, the GI50 (A549 NSCLC) was 4.88 µM and the TGI (A549 NSCLC) was greater than 100 µM. It also gave a GI50 (U251 CNS) of 6.12 µM, a TGI (U251 CNS) greater than 100 µM and a GI50 (SF-295 CNS) of 4.16 µM. For the same molecule, the TGI (SF-295 CNS) was greater than 100 µM, the GI50 (SW-620 colon) was 2890 nM and the TGI (SW-620 colon) was 10.4 µM. It also gave a GI50 (COLO 205 colon) of 4.31 µM, a TGI (COLO 205 colon) of 20.5 µM and a GI50 (HCT-15 colon) of 1940 nM. For the same molecule, the TGI (HCT-15 colon) was 4.5 µM, the GI50 (RXF 393 renal) was 2440 nM and the TGI (RXF 393 renal) was 21.3 µM. For the same molecule, the GI50 (CCRF-CEM leukemia) was 5.41 µM, the TGI (CCRF-CEM leukemia) was greater than 100 µM and the GI50 (OVCAR-4 ovarian) was 8.81 µM. It also gave a TGI (OVCAR-4 ovarian) greater than 100 µM, a GI50 (RPMI-8226 leukemia) of 4.33 µM and a TGI (RPMI-8226 leukemia) greater than 100 µM. It also gave a GI50 (HCT-116 colon) of 4.82 µM, a TGI (HCT-116 colon) greater than 100 µM and a GI50 (IGROV1 ovarian) of 34.4 µM. For the same molecule, the TGI (IGROV1 ovarian) was greater than 100 µM, the GI50 (SK-MEL-28 melanoma) was 8.51 µM and the TGI (SK-MEL-28 melanoma) was greater than 100 µM. The GI50 (SK-MEL-5 melanoma) was 7.54 µM, the TGI (SK-MEL-5 melanoma) was 20.3 µM and the GI50 (SR leukemia) was 2500 nM. It also gave a TGI (SR leukemia) greater than 100 µM, a GI50 (SK-OV-3 ovarian) greater than 100 µM and a TGI (SK-OV-3 ovarian) greater than 100 µM. For the same molecule, the GI50 (HS 578T breast) was 8.83 µM, the TGI (HS 578T breast) was greater than 100 µM and the GI50 (MDA-MB-435) was 11.5 µM. The TGI (MDA-MB-435) was greater than 100 µM, the GI50 (NCI-H522 lung) was 8.22 µM and the TGI (NCI-H522 lung) was greater than 100 µM. The GI50 (EKVX NSCLC) was 8.05 µM, the TGI (EKVX NSCLC) was greater than 100 µM and the GI50 (TK-10 renal) was 43.8 µM. It also gave a TGI (TK-10 renal) greater than 100 µM, a GI50 (UACC-257 melanoma) of 13.9 µM and a TGI (UACC-257 melanoma) greater than 100 µM. It also gave a GI50 (HL-60(TB) leukemia) of 3.85 µM, a TGI (HL-60(TB) leukemia) of 50.4 µM and a GI50 (UACC-62 melanoma) of 8.76 µM. The TGI (UACC-62 melanoma) was 23.8 µM, the GI50 (T-47D breast) was 3.28 µM and the TGI (T-47D breast) was greater than 100 µM. The GI50 (M14 melanoma) was 7.96 µM, the TGI (M14 melanoma) was greater than 100 µM and the GI50 (KM12 colon) was 4.81 µM. For the same molecule, the TGI (KM12 colon) was greater than 100 µM, the GI50 (CAKI-1 renal) was 5.07 µM and the TGI (CAKI-1 renal) was greater than 100 µM. The GI50 (SK-MEL-2 melanoma) was 11.9 µM, the TGI (SK-MEL-2 melanoma) was 37.5 µM and the GI50 (OVCAR-5 ovarian) was 14.1 µM. It also gave a TGI (OVCAR-5 ovarian) greater than 100 µM.
